Assay results taken from patent publication US20220026439A1, “PARTICLE BASED SMALL MOLECULE-PROTEIN COMPLEX TRAP” (priority 2018, published 2022).
Read-outs that look alike come from different tables or passages of the source.

What was measured:
CRBN / ASS1 = target: T1, CRBN / ASS1 (Homo sapiens, UniProt Q96SW2); assay: ViroTrap (gag-CRBN bait) with LC-MS/MS: molecular glue-induced recruitment of endogenous ASS1 to CRBN in virus-like particles; assay type: cell-based
T1 construct: expressed in transfected cells; host or cells: HEK293T
T1 sequence (Q96SW2 whole entry, species assumed): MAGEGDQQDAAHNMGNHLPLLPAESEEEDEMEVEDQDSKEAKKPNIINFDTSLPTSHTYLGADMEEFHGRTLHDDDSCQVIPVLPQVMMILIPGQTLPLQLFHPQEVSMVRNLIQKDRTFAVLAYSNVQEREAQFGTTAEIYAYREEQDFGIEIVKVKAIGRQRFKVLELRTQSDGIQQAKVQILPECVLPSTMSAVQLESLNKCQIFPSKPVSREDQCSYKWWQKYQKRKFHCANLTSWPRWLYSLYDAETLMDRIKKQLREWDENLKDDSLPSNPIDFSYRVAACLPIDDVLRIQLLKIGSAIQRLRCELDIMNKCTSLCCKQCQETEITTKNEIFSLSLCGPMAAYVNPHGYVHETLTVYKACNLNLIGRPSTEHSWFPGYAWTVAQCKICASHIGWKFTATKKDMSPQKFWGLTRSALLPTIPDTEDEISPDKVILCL
T1 sequence (P00966 whole entry partner, species assumed): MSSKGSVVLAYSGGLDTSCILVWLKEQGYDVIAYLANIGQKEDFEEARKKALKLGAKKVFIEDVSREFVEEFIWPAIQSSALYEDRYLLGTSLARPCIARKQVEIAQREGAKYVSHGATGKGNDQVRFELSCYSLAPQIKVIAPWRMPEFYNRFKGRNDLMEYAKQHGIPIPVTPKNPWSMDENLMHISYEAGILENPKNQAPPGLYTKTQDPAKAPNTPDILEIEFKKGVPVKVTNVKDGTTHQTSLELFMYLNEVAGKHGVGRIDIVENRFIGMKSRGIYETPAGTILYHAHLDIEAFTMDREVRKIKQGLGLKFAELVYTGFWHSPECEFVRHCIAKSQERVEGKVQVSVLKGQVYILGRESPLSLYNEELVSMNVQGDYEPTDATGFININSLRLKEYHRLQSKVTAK
T1 sequence (Q16531 2-1140 partner limits assumed, species assumed): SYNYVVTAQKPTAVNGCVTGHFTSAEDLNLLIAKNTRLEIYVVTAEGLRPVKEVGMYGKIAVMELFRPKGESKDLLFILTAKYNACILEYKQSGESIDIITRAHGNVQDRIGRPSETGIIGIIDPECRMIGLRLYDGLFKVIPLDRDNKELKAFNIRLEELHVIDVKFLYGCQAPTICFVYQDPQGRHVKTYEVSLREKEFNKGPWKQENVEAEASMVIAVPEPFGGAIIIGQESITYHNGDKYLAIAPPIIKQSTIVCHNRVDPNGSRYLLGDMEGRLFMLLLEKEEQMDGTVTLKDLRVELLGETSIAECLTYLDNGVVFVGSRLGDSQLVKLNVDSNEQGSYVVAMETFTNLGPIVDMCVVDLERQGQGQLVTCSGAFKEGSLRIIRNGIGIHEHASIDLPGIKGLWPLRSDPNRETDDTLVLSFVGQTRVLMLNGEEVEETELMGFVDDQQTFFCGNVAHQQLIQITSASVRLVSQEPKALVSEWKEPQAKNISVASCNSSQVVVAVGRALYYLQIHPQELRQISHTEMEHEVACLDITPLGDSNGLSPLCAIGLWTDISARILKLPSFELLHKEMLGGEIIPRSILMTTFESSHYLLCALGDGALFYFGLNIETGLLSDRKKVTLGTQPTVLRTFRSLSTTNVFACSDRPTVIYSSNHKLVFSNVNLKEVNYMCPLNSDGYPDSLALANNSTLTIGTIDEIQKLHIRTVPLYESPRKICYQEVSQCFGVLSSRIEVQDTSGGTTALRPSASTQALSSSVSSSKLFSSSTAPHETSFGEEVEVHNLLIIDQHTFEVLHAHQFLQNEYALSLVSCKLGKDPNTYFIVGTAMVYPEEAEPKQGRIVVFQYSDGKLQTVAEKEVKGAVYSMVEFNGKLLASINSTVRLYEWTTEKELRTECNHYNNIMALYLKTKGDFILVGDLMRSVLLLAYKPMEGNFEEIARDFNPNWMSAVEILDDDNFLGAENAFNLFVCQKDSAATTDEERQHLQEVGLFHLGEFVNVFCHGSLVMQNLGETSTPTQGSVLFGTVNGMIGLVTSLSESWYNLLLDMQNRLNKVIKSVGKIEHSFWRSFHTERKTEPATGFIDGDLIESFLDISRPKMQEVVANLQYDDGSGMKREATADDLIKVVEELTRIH
Text: In this study we evaluated the use of ViroTrap to identify molecular glue-induced endogenous (neo)substrates of CRBN in HEK293T cells. For this purpose, we used a previously described method known as ViroTrap (Eyckerman, et al. “Trapping mammalian protein complexes in viral particles,” Nature Communications 7: 11416 (2016); Titeca, et al. “Analyzing trapped protein complexes by Virotrap and SFINX.” Nature Protocols 12.5 (2017): 881). With this method, CRBN is expressed as a fusion protein with the viral protein HIV-GAG. HIV-GAG, when expressed in cells, such as HEK293T, is capable of triggering the formation of virus-like particles that bud off the cells. In the particle, the HIV-GAG protein is oriented towards the center of the particle. […] In the event the GAG-CRBN fusion interacts with proteins inside the cells, such proteins are dragged/trapped along with GAG-CRBN into the virus-like particles. In this manner, endogenous proteins that interact with CRBN, in presence or absence of a CRBN-ligand, can be identified. This is achieved by lysis of the particle and a standard mass-spectrometry analysis of tryptic digest of the sample. Subtractive analysis will then identify proteins that are specifically associated with the particle in response to a CRBN-ligand such as a molecular glue. […] Twenty-four hours after compound addition, virus-like particles (VLPs) were isolated from the cell supernatant using anti-Flag coated magnetobeads. After elution from the beads using Flag peptide, purified VLPs were lysed, and the protein content was digested overnight with trypsin. The peptide samples were analyzed through LC-MS/MS and label-free quantification data (LFQ intensities) from triplicate samples was processed using the MaxQuant software package and a volcano plot showing p-value (resulting from a two-sided t-test corrected for multiple testing; FDR 0.05%) versus LFQ intensity fold change (FIG. 1A-C) was generated with the Perseus tool.

[1] = target: PPP3CA, a calcineurin catalytic subunit, endogenous (UniProt Q08209); assay: ViroTrap: gag-FKBP12 VLPs from HEK293T cells, LC-MS/MS label-free quantification; FK506 1 µM versus DMSO control
FKBP12 / PPP3CA = FKBP12 / PPP3CA (Homo sapiens, UniProt P62942); assay: ViroTrap (gag-FKBP12 bait) with LC-MS/MS: FK506-induced binding of PPP3CA (calcineurin catalytic subunit) to FKBP12; assay type: cell-based; conditions: HEK293T cells
Chain of FKBP12 / PPP3CA (P62942 whole entry, species assumed, other chains not shown): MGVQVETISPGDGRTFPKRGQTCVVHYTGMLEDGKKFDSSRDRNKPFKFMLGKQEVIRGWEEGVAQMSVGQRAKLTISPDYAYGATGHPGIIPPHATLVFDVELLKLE
Chain of FKBP12 / PPP3CA (P63098 2-170 partner limits assumed, species assumed, other chains not shown): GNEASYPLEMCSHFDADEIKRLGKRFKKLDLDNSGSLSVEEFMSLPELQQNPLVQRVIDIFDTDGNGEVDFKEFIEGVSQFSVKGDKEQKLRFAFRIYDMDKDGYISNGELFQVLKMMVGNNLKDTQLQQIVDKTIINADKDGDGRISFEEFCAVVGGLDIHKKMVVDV

Chain of gag-FKBP12 fusion protein (P62942 whole entry, the tested form may be a part): as the sequence (P62942 whole entry, species assumed, other chains not shown) above

With `O=C1CC[C@H](N2Cc3c(OCc4ccc(CN5CCOCC5)cc4)cccc3C2=O)C(=O)N1` [CC-220] the “Compound-induced association of endogenous ASS1 with CRBN (result in words)” value (CRBN / ASS1; HEK293T cells, 10 μM lenalidomide, 10 μM pomalidomide, 1 μM CC-220, versus DMSO) was “induced the association of endogenous ASS1 with CRBN” and the “Fold change (LFQ intensity, compound versus DMSO) of target protein ASS1” value (CRBN / ASS1; bait CRBN, 1 μM compound, HEK293T cells, VLPs isolated 24 h after compound addition, triplicate samples) was 3.31.

`Nc1cccc2c1C(=O)N(C1CCC(=O)NC1=O)C2=O` (stereo not shown) [Pomalidomide, pomalidomide] was tested, and the “Compound-induced association of endogenous ASS1 with CRBN (result in words)” value (CRBN / ASS1) was “induced the association of endogenous ASS1 with CRBN” and the “Fold change (LFQ intensity, compound versus DMSO) of target protein ASS1” value (CRBN / ASS1) was 2.01.

“gag-FKBP12 fusion protein (from UniProt P62942 1-108)” showed a Fold change (LFQ intensity, compound versus DMSO) [1] of 9.71 fold.

For `C=CC[C@@H]1/C=C(\C)C[C@H](C)C[C@H](OC)[C@H]2O[C@@](O)(C(=O)C(=O)N3CCCC[C@H]3C(=O)O[C@H](/C(C)=C/[C@@H]3CC[C@@H](O)[C@H](OC)C3)[C@H](C)[C@@H](O)CC1=O)[C@H](C)C[C@@H]2OC` [FK506, tacrolimus], the “FK506-induced enrichment of PPP3CA in gag-FKBP12 virus-like particles (result in words)” value (FKBP12 / PPP3CA; FK506 versus DMSO) was “enriched for the presence of PPP3CA” and the “Fold change (LFQ intensity, compound versus DMSO) of target protein PPP3CA” value (FKBP12 / PPP3CA; bait FKBP12, 1 μM compound) was 9.71.
